Source: US6316409A, “Modified ligands of calcium-dependent binding proteins” (Medical Research Council, priority 1996, dated 2001)
Entries after “also recorded” stand apart in the source; their conditions may differ. Peptide text beside a SMILES is read from it.

Tests used:
[1] = biological target: T1, bovine brain calmodulin (Bos taurus, UniProt P62157); assay: BIAcore surface plasmon resonance, kon and koff of calmodulin binding to biotinylated peptides; conditions: for koff: read-out: koff (s^-1)^B; for kon: read-out: kon (s^-1 M^-1)^B; for improvement in Kd / affinity for calmodulin over the wild type peptide, in words: Table 1
T1 construct: Complexes between calmodulin from bovine brain (1 μM, Sigma); purchased Sigma; host or cells: bovine brain (tissue-derived)
Source text: (§1) For a kinetic and thermodynamic characterisation of the binding of the peptides of the present invention to bovine brain calmodulin, we have measured the kinetic isomerisation, association, and dissociation constants from which dissociation constants can be derived.
koff =k-1·k-2 /(k+2 +k-2)
Real-time interaction analysis by surface plasmon resonance on a BIAcore instrument (Jonsson et al., 1991) was used to determine kon and koff constants. Biotinylated peptides 1-17 were bound to commercially available streptavidin-coated microsensor chips (Pharmacia Biosensor), in order to achieve a surface capacity of 100-200 surface plasmon resonance units of calmodulin bound. Different concentrations of calmodulin (5, 10, 20, 50 and 100 nM in the order of FIG. 2) were injected and allowed to associate with the peptides. Regeneration of the surface was achieved by injection of 5 μl TBS+[…] which dissociates the calmodulin-peptide complex.

[2] = biological target: calmodulin (Bos taurus, UniProt P62157); assay: koff by competition experiments, native PAGE of fluorescein-labelled peptide/calmodulin complexes; type: binding, bovine; set-up: Complexes between calmodulin from bovine brain (1 μM, Sigma); purchased Sigma; host or cells: bovine brain (tissue-derived); conditions: for koff: competition with 30-fold excess unlabelled peptide, room temperature, gel buffer, read-out: koff (s^-1)^C; for dissociation from calmodulin in competition with excess unlabelled peptide, in words: FIG. 3
Procedure: Complexes between calmodulin from bovine brain (1 μM, Sigma) and fluorescein-labelled sMLCK-derived peptides (as described in Table 1 (SEQ ID NOS:2-18)) were prepared in gel buffer (25% gel mix [4 g sucrose+1 mg bromophenol blue in water to give a 10 ml solution]+75% TBSC [50 mM TRIS pH 7.4, […]+50 μM CaCl2)] and run on a 15% native PAGE gel (5 ml 30% acrylamide-bisacrylamide solution+4.5 ml water+0.5 ml 3M Tris, pH 8.8, +1 μl 1M CaCl2 polymerised with 30 μl 25% ammonium persulphate and 9 μl TEMED) using 14.4 g/l glycine+3 g/l Tris-base+0.1 mM CaCl2 as running buffer. Peptides were labelled either with iodoacetamido fluorescein (Molecular Probes) or with iodoacetamido-LC-biotin (Pierce) essentially as previously described by Neri et al., (1995). In these conditions, the fluorescence of the positively-charged labelled peptides can be detected only if they form a stable complex with calmodulin.
In order to obtain an independent experimental confirmation if the BIAcore results, koff constants for peptides 1-17 towards calmodulin were determined by competition experiments. 30 nM fluorescein-labelled peptide/calmodulin complexes in gel buffer were competed at room temperature for different times with 30-fold excess of unlabelled peptide. The resulting mixtures were run on native PAGE gels and imaged by LUANA as described above. The bands in the image obtained were integrated using the LUANA software (Neri et al., 1996) and the corresponding intersities plotted versus time and fitted with a single exponential, from which koff constants were derived. In order to normalise band intensities against pipetting errors, the samples contained 6 nM free fluorescein which ran with the front. The fluorescein bands were integrated and used to normalise the calmodulin/fluorescent peptide complex band intensity. The results of competitions for peptides 1, 2, 3, 6, 9, and 14 are shown in this FIG. 3. Incubation time in minutes is indicated under the lanes.
The volumes of the bands were plotted versus competition time and fitted to a single exponential, from which koff values were derived.
The fastest competitions (peptides 1-4, 9 and 13, SEQ ID NOS:2-5,10, and 14) were over by the time the calmodulin/fluorescent peptide complex entered the gel (approximately 5-10 minutes from pipetting a molar excess of unlabelled peptide; FIG. 3), from which a condition on the off-rate constant koff >1×10^-3 s^-1 was derived. Even for these fast off-rates, complexes can be detected by native polyacrylamide gel electrophoresis because of the well known gel "cage effect" (Fried and Crothers, 1981; Garner and Revzin, 1981).

[3] = biological target: T1, bovine brain calmodulin; assay: stopped-flow measurement of kisom of calmodulin-binding peptides; conditions: changes in tryptophan fluorescence
Source text: It has been shown by Torok and Trentham (1994) that smooth muscle MLCK-derived peptides bind to calmodulin with a biphasic kinetic according to the scheme: [drawing 1]
in which P is the peptide, C is calmodulin, P-C is the first complex formed on association of P and C, which then undergoes a conformational isomerisation to P-C*.
as §1
kisom constants have been measured by stopped-flow, detecting changes in tryptophan fluorescence for all the peptides except 3 (SEQ ID NO:4), in which the tryptophan is replaced by alanine.

SMILES: CC[C@H](C)[C@H](NC(=O)[C@H](CCCCN)NC(=O)[C@H](CCCCN)NC(=O)[C@H](Cc1ccccc1)NC(=O)[C@H](CCCNC(=N)N)NC(=O)[C@H](CC(N)=O)NC(=O)[C@H](C)NC(=O)[C@H](C)NC(=O)[C@H](CO)NC(=O)[C@@H](NC(=O)[C@H](C)NC(=O)[C@H](C)NC(=O)[C@H](Cc1ccccc1)NC(=O)[C@H](CC(N)=O)NC(=O)[C@H](CCCCN)NC(=O)[C@H](CCCCN)NC(=O)[C@H](Cc1c[nH]c2ccccc12)NC(=O)[C@H](CCCNC(=N)N)NC(=O)[C@H](C)NC(=O)[C@H](C)NC(=O)[C@H](C)NC(=O)[C@@H](N)CS)C(C)C)C(=O)N[C@@H](CO)C(N)=O [Peptide 8] (H-CAAARWKKNFAAVSAANRFKKIS-NH2; N-terminus assumed)
- koff ([1]; BIAcore): 0.00023 s⁻¹
- kon ([1]; BIAcore): 920000 M⁻¹ s⁻¹
- koff [2]: 0.00047 s⁻¹
- kisom. (s^-1)^A [3]: 1.1 (10.3) × 10^-1 s^-1

SMILES: CC[C@H](C)[C@H](NC(=O)[C@H](Cc1ccccc1)NC(=O)[C@H](CC(N)=O)NC(=O)[C@H](CCCCN)NC(=O)[C@H](CCCCN)NC(=O)[C@H](Cc1c[nH]c2ccccc12)NC(=O)[C@H](CCCNC(=N)N)NC(=O)[C@H](C)NC(=O)[C@H](C)NC(=O)[C@H](C)NC(=O)[C@@H](N)CS)C(=O)N[C@@H](C)C(=O)N[C@@H](C)C(=O)N[C@@H](CO)C(=O)N[C@@H](C)C(=O)N[C@@H](C)C(=O)N[C@@H](CC(N)=O)C(=O)N[C@@H](CCCNC(=N)N)C(=O)N[C@@H](Cc1ccccc1)C(=O)N[C@@H](CCCCN)C(=O)N[C@@H](CCCCN)C(=O)N[C@H](C(=O)N[C@@H](CO)C(N)=O)[C@@H](C)CC [Peptide 9] (H-CAAARWKKNFIAASAANRFKKIS-NH2; N-terminus assumed)
- koff ([1]; BIAcore): 0.0012 s⁻¹
- kon ([1]; BIAcore): 860000 M⁻¹ s⁻¹
- dissociation from calmodulin in competition with excess unlabelled peptide, in words [2]: dissociated from calmodulin in a few minutes
- koff [2]: ≥ 0.001 s⁻¹
- kisom. (s^-1)^A [3]: 1.5 (10.3) × 10^-1 s^-1

SMILES: CC[C@H](C)[C@H](NC(=O)[C@H](Cc1ccccc1)NC(=O)[C@H](CC(N)=O)NC(=O)[C@H](CCCCN)NC(=O)[C@H](CCCCN)NC(=O)[C@H](Cc1c[nH]c2ccccc12)NC(=O)[C@H](CCCNC(=N)N)NC(=O)[C@H](C)NC(=O)[C@H](C)NC(=O)[C@H](C)NC(=O)[C@@H](N)CS)C(=O)N[C@@H](C)C(=O)N[C@H](C(=O)N[C@@H](C)C(=O)N[C@@H](C)C(=O)N[C@@H](C)C(=O)N[C@@H](CC(N)=O)C(=O)N[C@@H](CCCNC(=N)N)C(=O)N[C@@H](Cc1ccccc1)C(=O)N[C@@H](CCCCN)C(=O)N[C@@H](CCCCN)C(=O)N[C@H](C(=O)N[C@@H](CO)C(N)=O)[C@@H](C)CC)C(C)C [Peptide 10] (H-CAAARWKKNFIAVAAANRFKKIS-NH2; N-terminus assumed)
- improvement of koff with respect to wild type, in words [1]: largest improvements
- koff ([1]; BIAcore): 0.0001 s⁻¹
- kon ([1]; BIAcore): 1.1e+06 M⁻¹ s⁻¹
- improvement in Kd / affinity for calmodulin over the wild type peptide, in words [1]: greatest improvement in affinity; also recorded: greatest improvement in Kd
- koff [2]: 7.9e-05 s⁻¹
- kisom. (s^-1)^A [3]: 2.1 (11.0) × 10^-1 s^-1

SMILES: CC[C@H](C)[C@H](NC(=O)[C@H](Cc1ccccc1)NC(=O)[C@H](CC(N)=O)NC(=O)[C@H](CCCCN)NC(=O)[C@H](CCCCN)NC(=O)[C@H](Cc1c[nH]c2ccccc12)NC(=O)[C@H](CCCNC(=N)N)NC(=O)[C@H](C)NC(=O)[C@H](C)NC(=O)[C@H](C)NC(=O)[C@@H](N)CS)C(=O)N[C@@H](C)C(=O)N[C@H](C(=O)N[C@@H](CO)C(=O)N[C@@H](C)C(=O)N[C@@H](C)C(=O)N[C@@H](C)C(=O)N[C@@H](CCCNC(=N)N)C(=O)N[C@@H](Cc1ccccc1)C(=O)N[C@@H](CCCCN)C(=O)N[C@@H](CCCCN)C(=O)N[C@H](C(=O)N[C@@H](CO)C(N)=O)[C@@H](C)CC)C(C)C [Peptide 11] (H-CAAARWKKNFIAVSAAARFKKIS-NH2; N-terminus assumed)
- koff ([1]; BIAcore): 0.00035 s⁻¹
- kon ([1]; BIAcore): 940000 M⁻¹ s⁻¹
- koff [2]: 0.00049 s⁻¹
- kisom. (s^-1)^A [3]: 2.8 (10.6) × 10^-2 s^-1

SMILES: CC[C@H](C)[C@H](NC(=O)[C@H](Cc1ccccc1)NC(=O)[C@H](CC(N)=O)NC(=O)[C@H](CCCCN)NC(=O)[C@H](CCCCN)NC(=O)[C@H](Cc1c[nH]c2ccccc12)NC(=O)[C@H](CCCNC(=N)N)NC(=O)[C@H](C)NC(=O)[C@H](C)NC(=O)[C@H](C)NC(=O)[C@@H](N)CS)C(=O)N[C@@H](C)C(=O)N[C@H](C(=O)N[C@@H](CO)C(=O)N[C@@H](C)C(=O)N[C@@H](C)C(=O)N[C@@H](CC(N)=O)C(=O)N[C@@H](C)C(=O)N[C@@H](Cc1ccccc1)C(=O)N[C@@H](CCCCN)C(=O)N[C@@H](CCCCN)C(=O)N[C@H](C(=O)N[C@@H](CO)C(N)=O)[C@@H](C)CC)C(C)C [Peptide 12] (H-CAAARWKKNFIAVSAANAFKKIS-NH2; N-terminus assumed)
- koff ([1]; BIAcore): 0.00041 s⁻¹
- kon ([1]; BIAcore): 1.6e+06 M⁻¹ s⁻¹
- koff [2]: 0.00083 s⁻¹
- kisom. (s^-1)^A [3]: 1.7 (10.4) × 10^-1 s^-1

SMILES: CC[C@H](C)[C@H](NC(=O)[C@H](Cc1ccccc1)NC(=O)[C@H](CC(N)=O)NC(=O)[C@H](CCCCN)NC(=O)[C@H](CCCCN)NC(=O)[C@H](Cc1c[nH]c2ccccc12)NC(=O)[C@H](CCCNC(=N)N)NC(=O)[C@H](C)NC(=O)[C@H](C)NC(=O)[C@H](C)NC(=O)[C@@H](N)CS)C(=O)N[C@@H](C)C(=O)N[C@H](C(=O)N[C@@H](CO)C(=O)N[C@@H](C)C(=O)N[C@@H](C)C(=O)N[C@@H](CC(N)=O)C(=O)N[C@@H](CCCNC(=N)N)C(=O)N[C@@H](C)C(=O)N[C@@H](CCCCN)C(=O)N[C@@H](CCCCN)C(=O)N[C@H](C(=O)N[C@@H](CO)C(N)=O)[C@@H](C)CC)C(C)C [Peptide 13] (H-CAAARWKKNFIAVSAANRAKKIS-NH2; N-terminus assumed)
- koff ([1]; BIAcore): 0.00084 s⁻¹
- kon ([1]; BIAcore): 930000 M⁻¹ s⁻¹
- koff [2]: ≥ 0.001 s⁻¹
- kisom. (s^-1)^A [3]: 1.8 (10.8) × 10^-1 s^-1

SMILES: CC[C@H](C)[C@H](NC(=O)[C@H](Cc1ccccc1)NC(=O)[C@H](CC(N)=O)NC(=O)[C@H](CCCCN)NC(=O)[C@H](CCCCN)NC(=O)[C@H](Cc1c[nH]c2ccccc12)NC(=O)[C@H](CCCNC(=N)N)NC(=O)[C@H](C)NC(=O)[C@H](C)NC(=O)[C@H](C)NC(=O)[C@@H](N)CS)C(=O)N[C@@H](C)C(=O)N[C@H](C(=O)N[C@@H](CO)C(=O)N[C@@H](C)C(=O)N[C@@H](C)C(=O)N[C@@H](CC(N)=O)C(=O)N[C@@H](CCCNC(=N)N)C(=O)N[C@@H](Cc1ccccc1)C(=O)N[C@@H](C)C(=O)N[C@@H](CCCCN)C(=O)N[C@H](C(=O)N[C@@H](CO)C(N)=O)[C@@H](C)CC)C(C)C [Peptide 14] (H-CAAARWKKNFIAVSAANRFAKIS-NH2; N-terminus assumed)
- increase in kon with respect to the wild-type peptide 1 ([1]; BIAcore): 4-5 fold
- koff ([1]; BIAcore): 0.00014 s⁻¹
- kon ([1]; BIAcore): 2.5e+06 M⁻¹ s⁻¹
- improvement in Kd / affinity for calmodulin over the wild type peptide, in words [1]: greatest improvement in affinity
- dissociation from calmodulin in competition with excess unlabelled peptide, in words [2]: intermediate off-rate
- koff [2]: 0.00015 s⁻¹
- kisom. (s^-1)^A [3]: 1.6 (10.2) × 10^-2 s^-1
